The values below come from patent US12187742B2 (XRAD Therapeutics, Inc., priority 2018, dated 2025).

The structures appear in SMILES notation. Structures can show the parent of a compound that is named as a salt.

One may read the IC50 as the point on the concentration scale where inhibition reaches its midpoint. Read a low IC50 as greater potency.

The target in experiment [1] is ATM (Homo sapiens (Human), UniProt Q13315). As to the kind of experiment: ATM in Cell Western Assay (pKAP1 in etoposide-treated MCF-7 cells). It is filed as cell-based. An outline of the steps:
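After paraformaldehyde fixation and Triton X-100 permeabilization, immunostained plates were read by infrared scanning (ODYSSEY CLx). Compound was given as 10 doses, 3-fold dilutions from a 1 μM final top concentration.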

In experiment [2] the target is DNA-PK (Homo sapiens (Human), UniProt P78527). In words: DNA-PK Enzyme-Linked Immunosorbent Assay (phosphorylation of GST-p53 (1-101) peptide). It is filed as biochemical. To be noted: ELISA. An outline of the steps:
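Inhibition measured by 450 nm absorbance after HRP/TMB detection of phospho-Ser15 on immobilized GST-p53 (1-101). The kinase reaction used 0.1 μg/mL DNA-PK and 20 μM ATP, 1 h at 25 °C. Ten 3-fold compound dilutions, top final concentration 100 nM.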
Background: An ELISA detects its analyte on a solid surface through an enzyme-linked reagent.

The mark [3] stands for this setting: MCF-7 cells, etoposide 100 μM, 1 hr, pKAP1 readout.
Where [4] appears, read: pKAP1 in etoposide-treated MCF-7 cells.

Sequence of ATM (Q13315 whole entry): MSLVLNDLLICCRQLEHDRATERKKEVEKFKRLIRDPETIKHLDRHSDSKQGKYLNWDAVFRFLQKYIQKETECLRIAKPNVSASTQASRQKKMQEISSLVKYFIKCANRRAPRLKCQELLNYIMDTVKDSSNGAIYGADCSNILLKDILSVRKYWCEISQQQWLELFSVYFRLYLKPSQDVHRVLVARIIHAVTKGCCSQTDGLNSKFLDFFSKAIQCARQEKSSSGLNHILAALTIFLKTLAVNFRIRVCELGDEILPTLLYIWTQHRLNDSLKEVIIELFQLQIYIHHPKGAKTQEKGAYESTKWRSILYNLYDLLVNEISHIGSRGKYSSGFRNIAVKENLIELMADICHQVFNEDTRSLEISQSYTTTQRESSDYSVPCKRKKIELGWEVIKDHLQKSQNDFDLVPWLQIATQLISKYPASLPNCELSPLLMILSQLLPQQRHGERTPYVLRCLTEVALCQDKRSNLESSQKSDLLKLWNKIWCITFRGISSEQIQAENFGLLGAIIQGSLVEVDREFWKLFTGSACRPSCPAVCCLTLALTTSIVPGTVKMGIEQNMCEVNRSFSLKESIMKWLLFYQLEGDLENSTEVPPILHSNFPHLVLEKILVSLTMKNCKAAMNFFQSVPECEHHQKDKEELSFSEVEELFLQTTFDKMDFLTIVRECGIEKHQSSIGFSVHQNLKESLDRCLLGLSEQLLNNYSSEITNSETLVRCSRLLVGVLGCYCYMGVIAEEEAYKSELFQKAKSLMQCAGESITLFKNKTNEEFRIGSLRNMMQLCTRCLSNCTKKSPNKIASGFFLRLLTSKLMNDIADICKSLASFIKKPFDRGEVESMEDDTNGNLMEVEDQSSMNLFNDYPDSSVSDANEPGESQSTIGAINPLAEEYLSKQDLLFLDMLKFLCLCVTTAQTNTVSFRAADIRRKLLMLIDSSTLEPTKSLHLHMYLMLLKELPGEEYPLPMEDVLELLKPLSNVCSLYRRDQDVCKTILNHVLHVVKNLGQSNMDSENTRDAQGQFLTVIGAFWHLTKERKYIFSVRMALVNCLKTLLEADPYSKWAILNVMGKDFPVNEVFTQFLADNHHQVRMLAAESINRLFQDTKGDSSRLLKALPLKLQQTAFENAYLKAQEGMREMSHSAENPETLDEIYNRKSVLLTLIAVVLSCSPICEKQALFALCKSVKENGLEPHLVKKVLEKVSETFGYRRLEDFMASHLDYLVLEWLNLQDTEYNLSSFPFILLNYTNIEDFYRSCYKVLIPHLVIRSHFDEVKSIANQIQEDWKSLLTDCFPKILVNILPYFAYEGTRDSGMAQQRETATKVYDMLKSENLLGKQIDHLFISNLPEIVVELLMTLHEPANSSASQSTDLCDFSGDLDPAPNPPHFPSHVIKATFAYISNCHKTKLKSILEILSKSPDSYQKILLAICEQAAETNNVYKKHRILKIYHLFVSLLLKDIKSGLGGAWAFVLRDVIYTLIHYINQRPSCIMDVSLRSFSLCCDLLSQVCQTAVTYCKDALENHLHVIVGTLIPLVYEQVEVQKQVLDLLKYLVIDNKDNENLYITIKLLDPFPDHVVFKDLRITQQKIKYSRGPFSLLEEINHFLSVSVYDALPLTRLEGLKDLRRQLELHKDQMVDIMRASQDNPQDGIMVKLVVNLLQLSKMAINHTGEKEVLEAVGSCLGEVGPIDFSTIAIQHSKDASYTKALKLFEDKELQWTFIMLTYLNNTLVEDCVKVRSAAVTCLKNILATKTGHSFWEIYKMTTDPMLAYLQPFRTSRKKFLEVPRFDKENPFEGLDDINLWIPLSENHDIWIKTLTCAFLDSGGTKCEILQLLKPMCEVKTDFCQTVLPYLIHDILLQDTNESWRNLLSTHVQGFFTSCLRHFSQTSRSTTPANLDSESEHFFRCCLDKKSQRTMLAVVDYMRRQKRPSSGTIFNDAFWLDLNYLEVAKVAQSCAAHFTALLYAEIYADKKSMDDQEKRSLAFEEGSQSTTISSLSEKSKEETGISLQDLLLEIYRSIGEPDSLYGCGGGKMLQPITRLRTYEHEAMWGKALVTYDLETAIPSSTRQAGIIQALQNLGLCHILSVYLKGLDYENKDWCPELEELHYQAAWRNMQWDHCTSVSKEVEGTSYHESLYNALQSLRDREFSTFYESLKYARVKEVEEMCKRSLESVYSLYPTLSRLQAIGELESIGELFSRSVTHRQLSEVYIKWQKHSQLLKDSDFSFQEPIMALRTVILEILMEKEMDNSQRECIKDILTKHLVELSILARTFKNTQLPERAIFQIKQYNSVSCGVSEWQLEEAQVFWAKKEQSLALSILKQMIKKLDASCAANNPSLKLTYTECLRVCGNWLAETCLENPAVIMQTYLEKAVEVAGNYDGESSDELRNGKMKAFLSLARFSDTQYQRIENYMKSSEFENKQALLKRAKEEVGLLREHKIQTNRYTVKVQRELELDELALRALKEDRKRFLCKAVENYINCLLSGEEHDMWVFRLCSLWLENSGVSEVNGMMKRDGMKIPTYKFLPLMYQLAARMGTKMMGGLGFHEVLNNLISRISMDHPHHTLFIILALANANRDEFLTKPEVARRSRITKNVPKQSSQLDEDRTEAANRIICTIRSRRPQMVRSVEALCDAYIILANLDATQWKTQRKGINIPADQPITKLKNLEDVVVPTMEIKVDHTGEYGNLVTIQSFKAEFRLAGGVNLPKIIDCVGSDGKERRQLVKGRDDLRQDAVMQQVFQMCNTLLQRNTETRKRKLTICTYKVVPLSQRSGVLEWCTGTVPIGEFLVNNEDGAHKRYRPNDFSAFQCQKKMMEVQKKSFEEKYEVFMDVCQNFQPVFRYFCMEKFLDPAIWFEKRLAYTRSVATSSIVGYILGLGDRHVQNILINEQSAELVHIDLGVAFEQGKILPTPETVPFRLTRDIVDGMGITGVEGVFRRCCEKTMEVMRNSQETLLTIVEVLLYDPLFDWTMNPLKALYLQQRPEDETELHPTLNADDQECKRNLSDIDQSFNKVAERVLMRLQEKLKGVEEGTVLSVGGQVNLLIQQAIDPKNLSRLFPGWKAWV

For `CCN(C)S(=O)(=O)Nc1cc(-c2ccc3ncc4c(c3c2)C2(CCC2)C(=O)N4C)cnc1OCCCN(C)C` [Example 163, 8′-{6-[3-(Dimethylamino)propoxy]5-{[ethyl(methyl)sulfamoyl]amino}pyridin-3-yl}-3′-Methyl-2′,3′-dihydrospiro[cyclobutane-1,1′-pyrrolo[2,3-c]quinoline]-2′-one], the IC50 lay in the range of 1 to 100 nM in experiment [1] (setting [3]) and 0.5 to 1 nM in experiment [2] (ATP 20 μM).
Taken in the same sequence, the figures for `CN(C)CCCOc1ncc(-c2ccc3ncc4c(c3c2)C2(CC2)C(=O)N4C)cc1NS(=O)(=O)c1ccc(F)c(C#N)c1` [Example 111, 3-Cyano-N-(2-(3-(dimethylamino)propoxy)-5-(3′-methyl-2′-oxo-2′,3′-dihydrospiro [cyclopropane-1,1′-pyrrolo[2,3-c]quinolin]-8′-yl)pyridin-3-yl)-4-fluorobenzenesulfonamide] were 1 to 100 nM and less than 0.5 nM.
Taken in the same sequence, the figures for `CN(C)CCCOc1ncc(-c2ccc3ncc4c(c3c2)C2(CCC2)C(=O)N4C)cc1NS(=O)(=O)c1ccc(C(F)(F)F)nc1` [Example 146, N-(2-(3-(Dimethylamino)propoxy)-5-(3′-methyl-2′-oxo-2′,3′-dihydrospiro [cyclobulane-1,1′-pyrrolo[2,3-c]quinolin]-8′-yl)pyridin-3-yl)-6-(trifluoromethyl)pyridine-3-sulfonamide hydrochloride] were 1 to 100 nM and 1 to 100 nM.
Taken in the same sequence, the figures for `CN1C(=O)C2(CC2)c2c1cnc1ccc(-c3cnc(OCCC4CCCN4C)c(NS(=O)(=O)c4ccccc4)c3)cc21` (centres unmarked) [Example 78, N-(5-(3′-Methyl-2′-oxo-2′,3′-dihydrospiro[cyclopropane-1,1′-pyrrolo[2,3-c]quinolin]-8′-yl)-2-(2-(1-methylpyrrolidin-2-yl)ethoxy)pyridin-3-yl)benzenesulfonamide] were 1 to 100 nM and 1 to 100 nM.
Turning to `Cc1ccc(S(=O)(=O)Nc2cc(-c3cc4c5c(cnc4cc3F)N(C)C(=O)C53CCC3)cnc2OCCCN2CCCCC2)cn1` [Example 217, N-(5-(7′-Fluoro-3′-methyl-2′-oxo-2′,3′-dihydrospiro[cyclobulane-1,1′-pyrrolo[2,3-c]quinolin]-8′-yl)-2-(3-(piperidin-1-yl)propoxy)pyridin-3-yl)-6-methylpyridine-3-sulfonamide hydrochloride], the IC50 in experiment [1] (setting [3]) and in experiment [2] (ATP 20 μM) was 1 to 100 nM in each case.
With `CC(C)NCCOc1ncc(-c2cc3c4c(cnc3cc2F)N(C)C(=O)C42CN(c3cccc(F)c3)C2)cc1NS(C)(=O)=O` [Example 539, N-(5-(7′-Fluoro-1-(3-fluorophenyl)-3′-methyl-2′-oxo-2′,3′-dihydrospiro[azetidine-3,1′-pyrrolo[2,3-c]quinolin]-8′-yl)-2-(2-(isopropylamino)ethoxy)pyridin-3-yl)methanesulfonamide], the IC50 was 1 to 100 nM in experiment [1] (setting [4]) and less than 0.5 nM in experiment [2] (20 μM ATP).
As to `CN1C(=O)C2(CCC2)c2c1cnc1ccc(-c3cnc(OCCCN4CCOCC4)c(NS(C)(=O)=O)c3)cc21` [Example 305, N-(5-(3′-Methyl-2′-oxo-2′,3′-dihydrospiro[cyclobutane-1,1′-pyrrolo[2,3-c]quinolin]-8′-yl)-2-(3-morpholinopropoxy)pyridin-3-yl)methanesulfonamide], the IC50 in experiment [1] (setting [3]) and in experiment [2] (ATP 20 μM) was 1 to 100 nM each time.
For the compound `CN1C(=O)C2(CCC2)c2c1cnc1ccc(-c3cnc(OCCCN4CCOCC4)c(NS(=O)(=O)C4CC4)c3)cc21` [Example 306, N-(5-(3′-Methyl-2′-oxo-2′,3′-dihydrospiro[cyclobutane-1,1′-pyrrolo[2,3-c]quinolin]-8′-yl)-2-(3-morpholinopropoxy)pyridin-3-yl)cyclopropanesulfonamide], the IC50 in experiment [1] (setting [3]) and in experiment [2] (ATP 20 μM) was 1 to 100 nM throughout.
Take `CN1C(=O)C2(CCC2)c2c1cnc1ccc(-c3cnc(N4CCC(N(C)C)CC4)c(NS(C)(=O)=O)c3)cc21` [Example 224, N-(2-(4-(Dimethylamino)piperidin-1-yl)-5-(3′-methyl-2′-oxo-2′,3′-dihydrospiro[cyclobutane-1,1′-pyrrolo[2,3-c]quinolin]-8′-yl)pyridin-3-yl)methanesulfonamide]: the IC50 in experiment [1] (setting [3]) is 1 to 100 nM; in experiment [2] (ATP 20 μM), less than 0.5 nM.
For the compound `CN(C)CCCOc1ncc(-c2ccc3ncc4c(c3c2)C2(CCC2)C(=O)N4)cc1NS(C)(=O)=O` [Example 237, N-(2-(3-(Dimethylamino)propoxy)-5-(2′-oxo-2′,3′-dihydrospiro [cyclobutane-1,1′-pyrrolo[2,3-c]quinolin]-8′-yl)pyridin-3-yl)methanesulfonamide], the IC50 in experiment [1] (setting [3]) and in experiment [2] (ATP 20 μM) was 1 to 100 nM throughout.
As to `COc1ncc(-c2ccc3ncc4c(c3c2)C2(COC2)C(=O)N4C)cc1NS(=O)(=O)c1ccccc1` [Example 8, N-(2-Methoxy-5-(3′-methyl-2′-oxo-2′,3′-dihydrospiro[oxetane-3,1′-pyrrolo[2,3-c]quinolin]-8′-yl)pyridin-3-yl)benzenesulfonamide], the IC50 in experiment [1] (setting [3]) is 1 to 100 nM; in experiment [2] (ATP 20 μM) it was less than 0.5 nM.
With `COCCS(=O)(=O)Nc1cc(-c2ccc3ncc4c(c3c2)C2(CCC2)C(=O)N4C)cnc1OCCCN(C)C` [Example 266, N-(2-(3-(Dimethylamino)propoxy)-5-(3′-methyl-2′-oxo-2′,3′-dihydrospiro [cyclobutane-1,1′-pyrrolo[2,3-c]quinolin]-8′-yl)pyridin-3-yl)-2-methoxyethane-1-sulfonamide], the IC50 in experiment [1] (setting [3]) and in experiment [2] (ATP 20 μM) was 1 to 100 nM each time.
Take `CC(C)NCCOc1ncc(-c2cc3c4c(cnc3cc2F)N(C)C(=O)C42CN(c3ccc(C(F)(F)F)cc3)C2)cc1NS(C)(=O)=O` [Example 536, N-(5-(7′-Fluoro-3′-methyl-2′-oxo-1-(4-(trifluoromethyl)phenyl)-2′,3′-dihydrospiro[azetidine-3,1′-pyrrolo[2,3-c]quinolin]-8′-yl)-2-(2-(isopropylamino)ethoxy)pyridin-3-yl)methanesulfonamide hydrochloride]: the IC50 in experiment [1] (setting [4]) and in experiment [2] (20 μM ATP) was 1 to 100 nM in each case.
For the compound `CCN(C)S(=O)(=O)Nc1cc(-c2ccc3ncc4c(c3c2)C2(CCC2)C(=O)N4C)cnc1OCCCN1CCCCC1` [Example 222, 8′-(5-{[Ethyl(methyl)sulfamoyl]amino}-6-[3-(piperidin-1-yl)propoxy]pyridin-3-yl)-3′-methyl-2′,3′-dihydrospiro [cyclobutane-1,1′-pyrrolo[2,3-c]quinoline]-2′-one], the IC50 in experiment [1] (setting [3]) and in experiment [2] (ATP 20 μM) was 1 to 100 nM each time.
Turning to `CN(C)CCCOc1ncc(-c2ccc3ncc4c(c3c2)C2(CC2)C(=O)N4C)cc1NS(=O)(=O)c1ccc(C(C)(C)C)cc1` [Example 127], the IC50 in experiment [1] (setting [3]) and in experiment [2] (ATP 20 μM) was 1 to 100 nM each time.
On to `CN(C)CCCOc1c(F)cc(-c2ccc3ncc4c(c3c2)C2(CC2)C(=O)N4C)cc1NS(=O)(=O)c1ccccc1` [Example 97, N-(2-(3-(Dimethylamino)propoxy)-3-fluoro-5-(3′-methyl-2′-oxo-2′,3′-dihydrospiro[cyclopropane-1,1′-pyrrolo[2,3-c]quinolin]-8′-yl)phenyl)benzenesulfonamide], for which the IC50 in experiment [1] (setting [3]) and in experiment [2] (ATP 20 μM) was 1 to 100 nM throughout.
For `CCS(=O)(=O)Nc1cc(-c2cc3c4c(cnc3cc2F)N(C)C(=O)C42CN(C(C)C)C2)cnc1OCCNC(C)C` [Example 483], the IC50 was in the range of 1 to 100 nM in experiment [1] (setting [4]) and 0.5 to 1 nM in experiment [2] (20 μM ATP).
Consider `CC(C)NCCOc1ncc(-c2cc3c(cc2F)ncc2c3[C@]3(C[C@H](Nc4ccccc4)C3)C(=O)N2C)cc1NS(C)(=O)=O` [Example 459, cis-N-(5-(7′-Fluoro-3′-methyl-2′-oxo-3-(phenylamino)-2′,3′-dihydrospiro[cyclobutane-1,1′-pyrrolo[2,3-c]quinolin]-8′-yl)-2-(2-(isopropylamino)ethoxy)pyridin-3-yl)methanesulfonamide], for which the IC50 in experiment [1] (setting [4]) is 1 to 100 nM; in experiment [2] (20 μM ATP) it was 0.5 to 1 nM.
`CN(C)CCCNc1ncc(-c2ccc3ncc4c(c3c2)C2(CC2)C(=O)N4C)cn1` [Example 70, 8′-(2-((3-(Dimethylamino)propyl)amino)pyrimidin-5-yl)-3′-methylspiro[cyclopropane-1,1′-pyrrolo[2,3-c]quinolin]-2′(3′-H)-one]: the IC50 in experiment [1] (setting [3]) and in experiment [2] (ATP 20 μM) was 1 to 100 nM throughout.
Take `CN1CCN(c2ncc(-c3ccc4ncc5c(c4c3)C3(CC3)C(=O)N5C)cc2NS(=O)(=O)c2ccccc2)CC1` [Example 49, N-(5-(3′-Methyl-2′-oxo-2′,3′-dihydrospiro[cyclopropane-1,1′-pyrrolo[2,3-c]quinolin]-8′-yl)-2-(4-methylpiperazin-1-yl)pyridin-3-yl)benzenesulfonamide]: the IC50 in experiment [1] (setting [3]) is 0.5 to 1 nM; in experiment [2] (ATP 20 μM), less than 0.5 nM.
On to `CC(C)NCCOc1ncc(-c2cc3c(cc2F)ncc2c3[C@]3(C[C@H](Oc4ccccc4)C3)C(=O)N2C)cc1NS(=O)(=O)N(C)C` [Example 402, cis-8′-{5-[(Dimethylsulfamoyl)amino]-6-{2-[(propan-2-ylamino]ethoxy}pyridine-3-yl}-7′-fluoro-3′-methyl-3-phenoxy-2′,3′-dihydrospiro[cyclobutane-1,1′-pyrrolo[2,3-c]quinoline]-2′-one hydrochloride], for which the IC50 in experiment [1] (setting [4]) and in experiment [2] (20 μM ATP) was 1 to 100 nM in each case.
Take `CN(C)CCCCOc1ncc(-c2ccc3ncc4c(c3c2)C2(CC2)C(=O)N4C)cc1NS(=O)(=O)C1CC1` [Example 56, N-(2-(4-(Dimethylamino)butoxy)-5-(3′-methyl-2′-oxo-2′,3′-dihydrospiro [cyclopropane-1,1′-pyrrolo[2,3-c]quinolin]-8′-yl)pyridin-3-yl)cyclopropanesulfonamide]: the IC50 in experiment [1] (setting [3]) and in experiment [2] (ATP 20 μM) was 1 to 100 nM each time.
